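Grown in 96-well plates, cells were treated for 48 hours with each compound at five concentrations. Insufficient inhibition: endpoint recorded as highest concentration tested. Here, GI50 denotes the concentration required for 50% inhibition of growth. TGI: concentration producing complete growth inhibition.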
Tests used:
Test in all cases: NCI-60 cell line screen, 48 h
HCT-116 colon = tested on: HCT-116 colon
HCT-15 colon = tested on: HCT-15 colon
HT29 colon = tested on: HT29 colon
KM12 colon = tested on: KM12 colon
NCI-H226 lung = tested on: NCI-H226 lung
OVCAR-8 ovarian = tested on: OVCAR-8 ovarian
PC-3 prostate = tested on: PC-3 prostate
SF-295 CNS = tested on: SF-295 CNS
SF-539 CNS = tested on: SF-539 CNS
U251 CNS = tested on: U251 CNS

| Structure (SMILES) | TGI (HCT-116 colon) | TGI (HCT-15 colon) | TGI (HT29 colon) | TGI (KM12 colon) | TGI (NCI-H226 lung) | TGI (OVCAR-8 ovarian) | TGI (PC-3 prostate) | TGI (SF-295 CNS) | TGI (SF-539 CNS) | TGI (U251 CNS) | GI50 (HCT-116 colon) | GI50 (HCT-15 colon) | GI50 (HT29 colon) | GI50 (KM12 colon) | GI50 (NCI-H226 lung) | GI50 (OVCAR-8 ovarian) | GI50 (PC-3 prostate) | GI50 (SF-295 CNS) | GI50 (U251 CNS) |
| --- | --- | --- | --- | --- | --- | --- | --- | --- | --- | --- | --- | --- | --- | --- | --- | --- | --- | --- | --- |
| C=C(Br)CNC(=O)CCC(=O)NCC(=C)Br | > 100 µM | > 100 µM | > 100 µM | > 100 µM | > 100 µM | > 100 µM | > 100 µM | > 100 µM | > 100 µM | > 100 µM |  |  |  |  |  |  |  |  |  |
| COc1ccc2nc(-c3ccc(O)cc3)sc2c1 | 32.7 µM | 36.5 µM | 37.2 µM | 86.9 µM | 45.8 µM | 45.1 µM | 45.2 µM | 42.6 µM | 37.1 µM | 36.2 µM |  |  |  |  |  |  |  |  |  |
| O=C1CC(c2ccccc2)n2cccc21 (configuration not stated) | > 100 µM | > 100 µM | > 100 µM | > 100 µM | > 100 µM | > 100 µM | > 100 µM | > 100 µM | > 100 µM | > 100 µM |  |  |  |  |  |  |  |  |  |
| BrC(c1cccc2ccccc12)c1cccc2ccccc12 | 27.8 µM | 42.5 µM | 35.8 µM | 28.8 µM | 33.5 µM | 35.1 µM | 54.1 µM | 44.7 µM |  | 30.6 µM |  |  |  |  |  |  |  |  |  |
| COc1ccccc1C(=O)c1c(NCc2ccccc2)c(=O)c1=O | > 100 µM | > 100 µM | > 100 µM | > 100 µM | > 100 µM | > 100 µM | > 100 µM | > 100 µM |  | > 100 µM |  |  |  |  |  |  |  |  |  |
| COc1cc(Cc2nccc3cc(OC)c(OC)cc23)c(N=NN(C)C)cc1OC | 17.7 µM | 19.6 µM | 25 µM | 40.2 µM | 60 µM | 60 µM | 56.8 µM | 74.9 µM |  | 72 µM |  |  |  |  |  |  |  |  |  |
| OC(c1cc(C23CC4CC(CC(C4)C2)C3)nc2c(Cl)cc(Cl)cc12)C1CCCCN1 (configuration not stated) | 2.7 µM |  | 3.04 µM | 3.07 µM | 3.77 µM | 3.18 µM | 3.09 µM | 3.76 µM | 3.22 µM | 3 µM |  |  |  |  |  |  |  |  |  |
| Cc1ccnc(NC(NC(=O)c2ccccc2)(C(F)(F)F)C(F)(F)F)c1 | > 100 µM | > 100 µM | > 100 µM | > 100 µM | > 100 µM | > 100 µM | > 100 µM | > 100 µM | > 100 µM | > 100 µM |  |  |  |  |  |  |  |  |  |
| N#Cc1c(N)nc(Sc2ccccc2N)c(C#N)c1-c1ccc(Cl)cc1 | > 72.6 µM | 54.7 µM | > 100 µM | 35.9 µM | > 100 µM | 41 µM | 20.7 µM | 25.9 µM | 26.7 µM | 24.5 µM |  |  |  |  |  |  |  |  |  |
| Oc1ccc2c(c1)-c1c(c3ccccc3n1CCN1CCOCC1)CC2 | > 100 µM | > 100 µM | > 100 µM | 51.3 µM | 81.2 µM | > 100 µM | > 100 µM | > 100 µM | > 100 µM | > 100 µM |  |  |  |  |  |  |  |  |  |
| CCCC(=O)OC1C(CO)OC(n2cc(F)c(=O)[nH]c2=O)C1F (configuration not stated) | > 100 µM | > 100 µM | > 100 µM | > 100 µM | > 100 µM | > 100 µM | > 100 µM | > 100 µM | > 100 µM |  |  |  |  |  |  |  |  |  |  |
| CC(=O)Nc1c(C)cc2c(nc3n2CCC3O)c1[N+](=O)[O-] (configuration not stated) | > 100 µM | > 100 µM | > 100 µM | > 100 µM | > 100 µM | > 100 µM | > 100 µM | > 100 µM | > 100 µM | > 100 µM |  |  |  |  |  |  |  |  |  |
| Nc1onc2c1Cc1c(noc1N)-c1ccccc1-2 | > 100 µM | > 100 µM | > 100 µM | > 100 µM | > 100 µM | > 100 µM | > 100 µM | > 100 µM | > 100 µM | > 100 µM |  |  |  |  |  |  |  |  |  |
| Cc1ccc(NC(=O)c2cc(S(=O)(=O)Nc3nc4ncccc4[nH]3)c(SSc3cc(Cl)c(C(=O)Nc4ccc(C)cc4)cc3S(=O)(=O)Nc3nc4ncccc4[nH]3)cc2Cl)cc1 | > 100 µM | > 100 µM | > 100 µM | > 100 µM | > 100 µM | > 100 µM | > 100 µM | > 100 µM | > 100 µM | > 100 µM |  |  |  |  |  |  |  |  |  |
| Cc1ccccc1S(=O)(=O)Nn1cnc2ccc(S(=O)(=O)Nc3ccc(Cl)cc3)cc2c1=O | > 100 µM | > 100 µM | > 100 µM | > 100 µM | > 100 µM | > 100 µM | > 100 µM | > 100 µM | > 100 µM | > 100 µM |  |  |  |  |  |  |  |  |  |
| Cc1cc(S(=O)(=O)Nc2nc3ccccc3c(=O)n2N)c(S)cc1Cl | > 100 µM | > 100 µM | > 100 µM | > 100 µM | 67.1 µM | > 100 µM | > 100 µM | > 100 µM | > 100 µM | > 100 µM |  |  |  |  |  |  |  |  |  |
| CCCCCCCCCCCCC(O)[C@H]1CC[C@H](C(O)CCCCCC(=O)CCCCC2CC(C(C)=O)C(=O)O2)O1 (some centres not stated) | 36 µM | > 70.9 µM | > 53.5 µM | 24.3 µM | 46.1 µM | > 53.9 µM | 28.1 µM | 37.6 µM | 35.6 µM | > 62.5 µM | 7.23 µM | 6.51 µM | 2.96 µM | 4.2 µM | 3.48 µM | 4.34 µM | 3.55 µM | 2.7 µM | 3.99 µM |
| O=c1/c(=C/c2ccc(-c3ccc(Cl)cc3Cl)o2)sc2n1[C@@H](c1ccc(Cl)cc1)C=C(c1cc(F)c(Cl)cc1Cl)N=2 | > 100 µM | > 100 µM | > 100 µM | > 100 µM | > 100 µM | > 100 µM | > 100 µM | > 100 µM | > 100 µM | > 100 µM |  |  |  |  |  |  |  |  |  |
| COc1ccc2c(c1)CCc1c-2n(CCN2CCCCC2)c2ccc(OC)cc12 | > 100 µM | > 100 µM | > 100 µM |  | 56.7 µM | > 100 µM | > 100 µM | > 100 µM |  | > 100 µM |  |  |  |  |  |  |  |  |  |
